Laboratory results from paper PMC8233901, “D-Amino Acid-Containing Lipopeptides Derived from the Lead Peptide BP100 with Activity against Plant Pathogens” (International Journal of Molecular Sciences, 2021).
Where two headings read alike, the source gives them in different places. Where a SMILES comes first, the peptide text is derived from it. [ ]: non-standard residue; d: D form. The star is where a group is joined. Lauroyl = CCCCCCCCCCCC(=O)*; Hexanoyl = CCCCCC(=O)*

How the values were obtained:
[1] = system: tobacco leaves; set-up: method as in earlier work; conditions: all-L parent lipopeptides, ± confidence interval, cited from earlier work
[2] = system: horse erythrocytes; set-up: method as in earlier work; conditions: all-L parent lipopeptides, ± confidence interval (α = 0.05), cited from earlier work
[3] = system: horse erythrocytes; test: Hemolytic activity (hemoglobin release from erythrocytes); format: cell-based; conditions: 37 °C, relative to melittin, ± confidence interval (α = 0.05)
Procedure: The hemolytic activity of the compounds was evaluated by determining hemoglobin release from erythrocyte suspensions of horse blood (5% vol/vol) (Oxoid) as previously described. Blood was centrifuged at 6000 g for 5 min, washed three times with tris(hydroxymethyl)aminomethane (TRIS) buffer (10 mM TRIS, 150 mM NaCl, pH 7.2) and diluted 10 times. Compounds were solubilized in TRIS buffer at 750, 500, 300 and 100 μM and mixed with horse erythrocytes (1:1 v/v). The mixture was incubated under continuous shaking for 1 h at 37 °C. Then, the tubes were centrifuged at 3500 g for 10 min, 80 μL aliquots of the supernatant transferred to 100-well microplates (Bioscreen), diluted with 80 μL water, and the absorbance measured at 540 nm (Bioscreen). Complete hemolysis was obtained by the addition of melittin at 100 μM (Sigma-Aldrich Corporation, Madrid, Spain). The percentage of hemolysis (H) was calculated using the equation: H = 100 × [(Op−Ob)/(Om−Ob)], where Op is the density for a given compound concentration, Ob for the buffer, and Om for the melittin-positive control.

[4] = system: tobacco leaves; test: Effect of peptide infiltration on tobacco leaves (lesion size); format: in vivo; conditions: ± confidence interval; for Size of the lesion (mm) 50 µM: 100 µL infiltrated into mesophyll of tobacco leaves
Procedure: The lipopeptides were evaluated for their effect upon infiltration on tobacco leaves as described previously. Peptide solutions of 50, 150 and 250 μM were infiltrated (100 μL) into the mesophylls of fully expanded tobacco leaves. Infiltrations were carried out in a single leaf, and for each peptide and dose, at least three leaves randomly distributed in different plants were infiltrated. Control infiltrations with water (negative control) or melittin (positive control) at the same molar concentration were performed. The appearance of symptoms on the leaves was followed for 48 h after infiltration and measured as a lesion diameter.

[5] = D-amino acid lipopeptides, 250 µM, TRIS buffer pH 7.2, 1 h
[6] = D-amino acid lipopeptides, TRIS buffer pH 7.2, 1 h
[7] = D-amino acid lipopeptides, lesion diameter, 48 h, at least three leaves
[8] = D-amino acid lipopeptides, 100 µL infiltrated into tobacco leaves, lesion diameter, 48 h, at least three leaves
[9] = D-amino acid lipopeptides, 250 µM, 100 µL infiltrated into tobacco leaves, lesion diameter, 48 h, at least three leaves
[10] = Table 2, 250 µM infiltrated into tobacco leaves

Row | Compound | Size of the lesion (mm) 50 µM ([1]; 50 µM) [mm] | Size of the lesion (mm) 150 µM ([1]; 150 µM) [mm] | Size of the lesion (mm) 250 µM ([1]; 250 µM) [mm] | Hemolysis (%) 50 µM ([2]; 50 µM) [%] | Hemolysis (%) 250 µM ([2]; 250 µM) [%] | Hemolysis (%) 375 µM ([2]; 375 µM) [%] | Hemolysis (%) 250 µM [3, 5] [%] | Hemolysis (%) 375 µM [3, 6] [%] | Size of the lesion (mm) 50 µM [4, 7] [mm] | Size of the lesion (mm) 150 µM [4, 8] [mm] | Size of the lesion (mm) 250 µM [4, 9] [mm] | Size of the lesion (mm) 250 µM [4, 10] [mm] | Hemolysis (%) 250 µM ([3]; Table 2, 250 µM, 1 h) [%] | Hemolysis (%) 150 µM ([3]; D-amino acid lipopeptides, 150 µM, TRIS buffer pH 7.2, 1 h) [%]
1 | Ac-KKLFKKILKK(COC3H7)L-NH2 [BP389, analog of BP475 with all L-amino acids] | 4 ± 1 | 7 ± 1 | 9 ± 3 | 9 ± 4 | 22 ± 2 | 39 ± 3 |  |  |  |  |  |  |  | 
2 | CCCC(=O)NCCCC[C@H](NC(=O)[C@H](CCCCN)NC(C)=O)C(=O)N[C@@H](CC(C)C)C(=O)N[C@H](Cc1ccccc1)C(=O)N[C@@H](CCCCN)C(=O)N[C@@H](CCCCN)C(=O)N[C@H](C(=O)N[C@@H](CC(C)C)C(=O)N[C@@H](CCCCN)C(=O)N[C@@H](Cc1ccc(O)cc1)C(=O)N[C@@H](CC(C)C)C(N)=O)[C@@H](C)CC [BP486, Ac-KK(COC3H7)LfKKILKYL-NH2] |  |  |  |  |  |  | 14 ± 5 | 14 ± 2 | 4 ± 1 | 8 ± 1 | 17 ± 2 | 17 ± 2 |  | 
3 | CCCCCCCCCCCC(=O)NCCCC[C@H](NC(=O)[C@H](CCCCN)NC(=O)[C@H](CCCCN)NC(=O)[C@@H](Cc1ccccc1)NC(=O)[C@H](CC(C)C)NC(=O)[C@H](CCCCN)NC(=O)[C@H](CCCCN)NC(C)=O)C(=O)N[C@@H](CC(C)C)C(=O)N[C@@H](CCCCN)C(=O)N[C@@H](Cc1ccc(O)cc1)C(=O)N[C@@H](CC(C)C)C(N)=O [BP489, Ac-KKLfKKK(COC11H23)LKYL-NH2] (Ac-KKL[dF]KKK(Lauroyl)LKYL-NH2) |  |  |  |  |  |  | 100 ± 6 | 100 ± 1 | 2 ± 0.5 | 6 ± 2 | 11 ± 1 | 11 ± 1 |  | 
4 | CCCCCC(=O)N[C@@H](CCCCN)C(=O)N[C@@H](CCCCN)C(=O)N[C@@H](CC(C)C)C(=O)N[C@H](Cc1ccccc1)C(=O)N[C@@H](CCCCN)C(=O)N[C@@H](CCCCN)C(=O)N[C@H](C(=O)N[C@@H](CC(C)C)C(=O)N[C@@H](CCCCN)C(=O)N[C@@H](Cc1ccc(O)cc1)C(=O)N[C@@H](CC(C)C)C(N)=O)[C@@H](C)CC [BP472, C5H11CO-KKLfKKILKYL-NH2] |  |  |  |  |  |  | 78 ± 5 |  | 2 ± 1 | 4 ± 1 | 4 ± 1 | 4 ± 1 |  | 
5 | CCCCCC(=O)NCCCC[C@H](NC(=O)[C@H](Cc1ccc(O)cc1)NC(=O)[C@H](CCCCN)NC(=O)[C@H](CC(C)C)NC(=O)[C@@H](NC(=O)[C@H](CCCCN)NC(=O)[C@H](CCCCN)NC(=O)[C@@H](Cc1ccccc1)NC(=O)[C@H](CC(C)C)NC(=O)[C@H](CCCCN)NC(=O)[C@H](CCCCN)NC(C)=O)[C@@H](C)CC)C(N)=O [BP495, Ac-KKLfKKILKYK(COC5H11)-NH2] (Ac-KKL[dF]KKILKYK(Hexanoyl)-NH2) |  |  |  |  |  |  |  |  | 3 ± 0 | 6 ± 2 | 11 ± 2 | 11 ± 2 | 0.6 ± 1 | 
6 | CCCCCCCCCCCC(=O)NCCCC[C@H](NC(=O)[C@H](CC(C)C)NC(=O)[C@@H](NC(=O)[C@H](CCCCN)NC(=O)[C@H](CCCCN)NC(=O)[C@@H](Cc1ccccc1)NC(=O)[C@H](CC(C)C)NC(=O)[C@H](CCCCN)NC(=O)[C@H](CCCCN)NC(C)=O)[C@@H](C)CC)C(=O)N[C@@H](Cc1ccc(O)cc1)C(=O)N[C@@H](CC(C)C)C(N)=O [BP497, Ac-KKLfKKILK(COC11H23)YL-NH2] |  |  |  |  |  |  | 100 ± 2 | 100 ± 4 | 5 ± 1 | 18 ± 1 | 18 ± 0 | 18 ± 0 |  | 100 ± 2
7 | CCCCCCCCCCCC(=O)NCCCC[C@@H](NC(=O)[C@H](CC(C)C)NC(=O)[C@H](CCCCN)NC(=O)[C@H](CCCCN)NC(C)=O)C(=O)N[C@@H](CCCCN)C(=O)N[C@@H](CCCCN)C(=O)N[C@H](C(=O)N[C@@H](CC(C)C)C(=O)N[C@@H](CCCCN)C(=O)N[C@@H](Cc1ccc(O)cc1)C(=O)N[C@@H](CC(C)C)C(N)=O)[C@@H](C)CC [BP488, Ac-KKLk(COC11H23)KKILKYL-NH2] |  |  |  |  |  |  | 86 ± 14 |  | 4 ± 0.7 | 5 ± 1 | 13 ± 5 | 13 ± 5 |  | 
